Measurements: patent US20260062441A1, “TUMOR-SEEKING GLUCOSE-DENDRONS FOR THE DELIVERY OF CHEMOTHERAPEUTICS AND IMAGING AGENT TO CANCER CELLS” (THE BOARD OF TRUSTEES OF THE UNIVERSITY OF ILLINOIS, priority 2022, published 2026)

Assays:
[1] = Photophysical characterization; format: physicochemical; conditions: for ε / λabs / λem: 3:7 v/v MeCN:PBS (pH=7.4); for PABF: PA Brightness Factor; for Φ: relative to dimethoxy aza-BODIPY
Protocol: Photophysical Characterization. Extinction coefficients and fluorescence quantum yields were acquired in experimental triplicates. Extinction coefficients were measured by performing serial dilutions of the compounds in 3:7 v/v MeCN:PBS (pH=7.4) within the linear range (absorbance values between 0.05-1.5). Reported fluorescence quantum yields are relative quantum yields compared to dimethoxy aza-BODIPY (Φ=0.36, chloroform). The compounds were titrated into acetonitrile or 3:7 MeCN/PBS (pH=7.4) such that their absorbance values were kept below 0.1 to prevent secondary absorbance events. The refractive index of 3:7 v/v MeCN:PBS (pH=7.4) was measured to be 1.343. Characterization of mvpCu and t-mvpCu were conducted in 1:1 v/v DMF:HEPES (50 mM, pH=7.4).

[2] = chloroform; cited from earlier work
[3] = Log D7.4 measurements (octanol/PBS partition); format: physicochemical; conditions: octanol/PBS pH 7.4
Protocol: Log D7.4 Measurements. Log D measurements were conducted in technical triplicate and 5 experimental replicates. Samples at a known concentration (n=3) were added to Eppendorf tubes containing PBS (pH=7.4, 500 μL) and octanol (500 μL). The Eppendorf tubes were each vortexed for 30 seconds and subsequently subjected to microcentrifuge for 1 minute. Then the PBS and octanol layers were pipetted into a clear 96-well plate. The absorbance values were taken using a SpectraMax M2 plate reader. The log of (dye absorbance in octanol/dye absorbance in PBS) was calculated and averaged across different concentrations to generate the log D7.4.

4T1 cells = assay: MTT cytotoxicity assay; format: cell-based, murine; conditions: 4T1, up to 15 μM, 6-hour incubation
Protocol: (§1) MTT Cytotoxicity Assay. A 96-well plate was seeded with 30,000 cells per well and incubated at 37° C. with 5% CO2 for 24-48 hours (˜70% confluent). The media was removed and replaced with fresh serum-free medium (200 μL) containing vehicle control (DMSO) or dye (4, 6, 10, or 15 μM). After 4 hours, the media was removed and replaced with a 20:1 mixture of PBS and (3-(4,5-dimethylthiazol-2-yl)-2,5-diphenyl-tetrazolium bromide (MTT, 5 mg/mL stock in PBS). The cells were incubated for 2 hours under the same conditions, and then the media was removed, replaced with DMSO (200 μL), and the absorbance of each well was recorded at 555 nm on a SpectraMax M2 plate reader. Percent viability was calculated relative to the vehicle control (n=8).

[4] = test system: A549 human lung cancer cells; assay: Cellular uptake studies (epifluorescence imaging); format: cell-based
Protocol: Cell Culture. A549 lung cancer cells and 4T1 murine breast cancer cells were acquired from ATCC. A549 cells were cultured in Ham's F-12K Medium containing 10% FBS and 1% penicillin streptomycin solution, and 4T1 cells were cultured in RPMI-1640 Medium containing 10% FBS and 1% penicillin streptomycin solution. Cells were incubated at 37° C. with 5% CO2. Experiments were performed in 8-well plates (Nuc Lab-Tek Chambered Coverglass, Thermo Scientific) or 96-well plates (Nuclon Delta Surface Flat Bottom, Thermo Scientific).
Cellular Uptake Studies. 8-well borosilicate plates were prepared with poly-L-Lysine coating and seeded with 50,000 cells per well and incubated at 37° C. with 5% CO2 for 24 hours (˜60% confluent). Serum-free media containing mvGlu-AB2 (2 μM), 15 mM Glucose, mvGlu-AB2 (2 μM)+15 mM Glucose, L-mvGlu-AB2 (2 μM), dimethoxy aza-BODIPY (2 μM), or vehicle (DMSO) were prepared. Competition glucose wells were preincubated with 15 mM glucose in serum-free media for 30 minutes. […] The media was removed and replaced with PBS. Cells were imaged using an EVOS FL epifluorescence microscope with a Cy7 filter cube. Four experimental replicates and 3 technical replicates were taken.
Quantification of Cell Imaging Data. In FIJI (ImageJ), ROIs were drawn around representative cells and the integrated density (area×mean gray value) was measured. The total cell fluorescence was calculated by subtracting the integrated density of the cell by the background integrated fluorescence. Technical replicates (n=3) in each well were quantified as the average of 3 cells. Values are reported as the average (+SD) of […] (n=4). Colocalization Studies with mvGlu-AB2. 8-well borosilicate plates were prepared with poly-L-Lysine coating and seeded with 45,000 cells per well and incubated at 37° C. with 5% CO2 for 24 hours (˜60% confluent). Serum-free media containing mvGlu-AB2 (1 μM) was prepared. Cells were incubated for 30 minutes with mvGlu-AB2. The cells were washed 1× with PBS and incubated with the relevant organelle tracker according to the manufacturer recommended protocol. Following incubation with tracker, the cells were washed 1× with PBS. Cells were imaged using an EVOS FL epifluorescence microscope. Lysotracker® Green and Mitotracker® Green were imaged using a GFP filter cube, DAPI was imaged using a DAPI filter cube, and mvGlu-AB2 was image with a Cy7 filter cube. Four experimental replicates and 3 technical replicates were taken.

[5] = test system: 4T1 orthotopic breast cancer; assay: In vivo PA imaging with mvGlu-AB2; design: species or system BALB/c mice; conditions: 6 hr, spectral unmixing
Protocol: In Vivo Imaging. Before all imaging, hair on the bottom half of mice were removed via an electric razor and depilatory cream. In both FL and PA imaging, a background scan was taken of each mouse before injection. For PA imaging experiments, mice were allowed to equilibrate in the water tank for 10 min, and all scans were collected on H2O mode at 34° C. PA Imaging with mvGlu-AB2. 4T1 cells were trypsinized, neutralized with growth media, and counted on a Countess II FL Cell Counter (Invitrogen, Thermo Fisher Scientific). Cells were spun down, media was aspirated, and a solution was made in 1:1 serum-free RPMI media to Geltrex™ LDEV-Free, hESC-Qualified, Reduced Growth Factor Basement Membrane Matrix. Mice were injected in the mammary fat pad with 250,000 cells (50 μL) of the cell solution. Tumors grew for around 1.5-2 weeks and the mice were imaged once tumors reached 100 mm^3. mvGluAB-2 was reconstituted in 0.9% saline (5% DMSO) and injected retroorbitally. PA images were taken at timepoints=0 and 6 hours in 5 nm increments from 660-700 nm. Images were spectrally unmixed from hemoglobin, deoxyhemoglobin, and melanin (n=4).

A549 cells = assay: MTT cytotoxicity assay; format: cell-based, human; conditions: A549, up to 15 μM, 6-hour incubation
Protocol: as §1

[6] = test system: 4T1 orthotopic breast cancer; assay: In vivo fluorescence imaging of tumor-bearing mice; design: species or system BALB/c mice; conditions: for fluorescence signal enhancement of the tumor site relative to initial background scan: 1.2 mg/kg retroorbital
Protocol: In Vivo Imaging. Before all imaging, hair on the bottom half of mice were removed via an electric razor and depilatory cream. In both FL and PA imaging, a background scan was taken of each mouse before injection. For PA imaging experiments, mice were allowed to equilibrate in the water tank for 10 min, and all scans were collected on H2O mode at 34° C.
Fluorescence Imaging with mvGlu-AB2 and mvGlu-AB3. 4T1 cells were trypsinized, neutralized with growth media, and counted on a Countess II FL Cell Counter (Invitrogen, Thermo Fisher Scientific). Cells were spun down, media was aspirated, and a solution was made in 1:1 serum-free RPMI media to VitroGel® hydrogel. Mice were injected in the mammary fat pad with 300,000 cells (50 μL) of the cell solution. Tumors grew for around 1.5-2 weeks and the mice were imaged once tumors reached 100 mm^3. Dyes (1.2 mg/kg) were dissolved in 0.9% saline (5% DMSO) and injected retroorbitally. Mice were imaged using the CRi Maestro In-Vivo Fluorescence Imaging System at timepoints=0, 6, 8, 12, 16, 24, and 48 hours. Excitation occurred at 680 nm, and light was collected from 690-850 nm (n=3).

extinction coefficient ε [1] | ε ([1]; Table 1b) | λabs ([1]; Table 1b) | λem ([1]; Table 1b) | PABF ([1]; Table 1b) | Φ ([1]; Table 1b) | ε ([1]; Table 2) | λabs ([1]; Table 2) | λem ([1]; Table 2) | PABF ([1]; Table 2) | Φ ([1]; Table 2) | logD7.4 ([3]; Table 2) | logD7.4 [3] | SMILES | also measured
3000 M⁻¹ cm⁻¹ | 3400 M/cm | 689 nm | 710 nm | 0.34 ×10^4 | 0.014 | 3400 M/cm | 689 nm | 710 nm | 0.34 × 10^4 | 0.014 | 2.51 ± 0.92 | 2.51±0.92 | COc1ccc(C2=[N+]3C(=Nc4c(-c5ccccc5)cc(-c5ccc(OC)cc5)n4[B-]3(F)F)C(c3ccccc3)=C2)cc1 [AB-OMe2, reference compound] | fluorescence quantum yield Φ of reference standard [2]: 0.36
26000 M⁻¹ cm⁻¹ | 26000 M/cm | 679 nm | 710 nm | 2.1 ×10^4 | 0.19 | 26000 M/cm | 679 nm | 710 nm | 2.1 × 10^4 | 0.19 | −1.12 ± 0.16 | −1.12±0.16 | CO[B-]1(OC)n2c(-c3ccc(OCc4cn(C(COC5OC(CO)C(O)C(O)C5O)COC5OC(CO)C(O)C(O)C5O)nn4)cc3)cc(-c3ccccc3)c2N=C2C(c3ccccc3)=CC(c3ccc(OCc4cn(C(COC5OC(CO)C(O)C(O)C5O)COC5OC(CO)C(O)C(O)C5O)nn4)cc3)=[N+]21 (centres unmarked) [mvGlu-AB2] | cell viability (MTT) (4T1 cells): no loss in cell viability; ε higher than AB-OMe2 ([1]; ratio to AB-OMe2): 8.7 fold; low dye concentration at which a clear fluorescent signature was apparent ([4]; A549): 50 nM; brighter than cells treated with l-mvGlu isomer ([4]; A549, 2 μM): 3 fold; signal intensity higher when glucose was absent ([4]; A549, dye 2 μM, vs pre-incubation with glucose 15 mM): 2 fold; fluorescence signal intensity brighter than AB-OMe2-treated cells ([4]; A549, imaged after 20 minutes): > 1000 fold; PA signal difference of tumor prior to and after injection [5]: 4.1 fold; cell viability (MTT) (A549 cells): no loss in cell viability; fluorescence signal enhancement of the tumor site relative to initial background scan ([6]; after 8 hours): ~2 fold
 | 24000 M/cm | 681 nm | 712 nm | 1.7 ×10^4 | 0.31 | 24000 M/cm | 681 nm | 712 nm | 1.7 × 10^4 | 0.31 | −0.71 ± 0.11 | −0.71±0.11 | COc1ccc(C2=[N+]3C(=Nc4c(-c5ccc(OCc6cn(C(COC7OC(CO)C(O)C(O)C7O)COC7OC(CO)C(O)C(O)C7O)nn6)cc5)cc(-c5ccc(OC)cc5)n4[B-]3(OC)OC)C(c3ccc(OCc4cn(C(COC5OC(CO)C(O)C(O)C5O)COC5OC(CO)C(O)C(O)C5O)nn4)cc3)=C2)cc1 (centres unmarked) [mvGlu-AB3] | in vivo imaging results compared with mvGlu-AB2 ([6]; FIGS. 17-18): comparable; fluorescence signal enhancement of the tumor site relative to initial background scan ([6]; after 12 hours): ~2 fold

SMILES | extinction coefficient ε [1] | ε ([1]; Table 1b) | λabs ([1]; Table 1b) | λem ([1]; Table 1b) | PABF ([1]; Table 1b) | Φ ([1]; Table 1b) | ε ([1]; Table 2) | λabs ([1]; Table 2) | λem ([1]; Table 2) | PABF ([1]; Table 2) | Φ ([1]; Table 2) | logD7.4 ([3]; Table 2) | logD7.4 [3] | also measured
COc1ccc(-c2cc(-c3ccccc3)c3n2[B-](OC)(OC)[N+]2=C(c4ccc(OCc5cn(C(COC6OC(CO)C(O)C(O)C6O)COC6OC(CO)C(O)C(O)C6O)nn5)cc4)C=C(c4ccccc4)C2=N3)cc1 (centres unmarked) [mvGlu-AB1] |  | 18000 M/cm | 675 nm | 710 nm | 1.6 ×10^4 | 0.10 | 18000 M/cm | 675 nm | 710 nm | 1.6 × 10^4 | 0.10 | 0.75 ± 0.02 | 0.75±0.02 | 
